Assay results reported in patent US11655243B2, “Pyridine and pyrazine derivatives as preferential cannabinoid 2 agonists” (HOFFMANN-LA ROCHE INC., priority 2018, dated 2023).

Biological target: human CNR2 receptors (CB2 receptor) (Homo sapiens (Human), UniProt P34972)
Experiment: Radioligand binding assay, human CB2 (CNR2)
Details: not given
Description: Radioligand Binding Assay
The affinity of the compounds of the invention for cannabinoid CB1 receptors was determined using recommended amounts of membrane preparations (PerkinElmer) of human embryonic kidney (HEK) cells expressing the human CNR1 or CNR2 receptors in conjunction with 1.5 or 2.6 nM [3H]-CP-55,940 (Perkin Elmer) as radioligand, respectively. Binding was performed in binding buffer (50 mM Tris, 5 mM MgCl2, 2.5 mM EDTA, and 0.5% (wt/vol) fatty acid free BSA, pH 7.4 for CB1 receptor and 50 mM Tris, 5 mM MgCl2, 2.5 mM EGTA, and 0.1% (wt/vol) fatty acid free BSA, pH 7.4 for CB2 receptor) in a total volume of 0.2 ml for 1 h at 30° C. shaking. The reaction was terminated by rapid filtration through microfiltration plates coated with 0.5% polyethylenimine (UniFilter GFB filter plate; Packard). Bound radioactivity was analyzed for Ki using nonlinear regression analysis (Activity Base, ID Business Solution, Limited), with the Kd values for [3H]CP55,940 determined from saturation experiments. The compounds of formula (I) show an excellent affinity for the CB2 receptor.
The compounds according to formula (I) have an activity in the above assay (Ki) between 0.5 nM and 10 μM. Particular compounds of formula (I) have an activity in the above assay (Ki) between 0.5 nM and 3 μM. Other particular compounds of formula (I) have an activity in the above assay (Ki) between 0.5 nM and 100 nM.

Sequence of human CNR2 receptors (CB2 receptor) (P34972 whole entry): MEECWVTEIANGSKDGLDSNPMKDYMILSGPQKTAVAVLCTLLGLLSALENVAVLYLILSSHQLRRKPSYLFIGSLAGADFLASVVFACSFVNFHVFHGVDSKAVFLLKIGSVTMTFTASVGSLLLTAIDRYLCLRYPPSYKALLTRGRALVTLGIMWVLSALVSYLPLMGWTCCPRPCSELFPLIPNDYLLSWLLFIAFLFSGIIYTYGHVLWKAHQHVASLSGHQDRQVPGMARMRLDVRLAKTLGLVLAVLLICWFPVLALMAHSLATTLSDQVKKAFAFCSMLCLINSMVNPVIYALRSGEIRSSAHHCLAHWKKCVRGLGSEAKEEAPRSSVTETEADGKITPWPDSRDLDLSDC

Row | SMILES | Ki
1 | CCC(CC)(NC(=O)c1ccc(N2CC(OS(=O)(=O)c3ccc(C)cc3)C2)c(OC[C@H]2C[C@@H]2CO)n1)C(=O)OCCCF (racemic) [Example 31, (Rac)-trans-3-fluoropropyl 2-ethyl-2-[[6-[[-2-(hydroxymethyl)cyclopropyl]methoxy]-5-[3-(p-tolylsulfonyloxy)azetidin-1-yl]pyridine-2-carbonyl]amino]butanoate] | 11.7 nM
2 | CCC(CC)(NC(=O)c1ccc(N2CC(O)C2)c(OC[C@H]2C[C@@H]2COCc2ccccc2)n1)C(=O)OCCCF (racemic) [Example 22, (Rac)-trans-3-Fluoropropyl 2-[[6-[[-2-(benzyloxymethyl)cyclopropyl]methoxy]-5-(3-hydroxyazetidin-1-yl)pyridine-2-carbonyl]amino]-2-ethyl-butanoate] | 755 nM

Same assay, conditions: membranes of HEK cells expressing human CNR2, 2.6 nM [3H]-CP-55,940 radioligand; read-out: Binding assay human CB2 Ki

Row | SMILES | Ki
3 | CCC(CC)(NC(=O)c1ccc(N2CCCC2)c(OCC2(CO)COC2)n1)C(=O)OCCCF [Example 35, 3-Fluoropropyl 2-ethyl-2-(6-((3-(hydroxymethyl)oxetan-3-yl)methoxy)-5-(pyrrolidin-1-yl)picolinamido)butanoate] | 1390 nM
4 | CC(C)C[C@@H](COCCF)NC(=O)c1ccc(N2CCCC2)c(OCC2COC2)n1 [Example 18, N-[(2S)-1-(2-Fluoroethoxy)-4-methylpentan-2-yl]-6-[(oxetan-3-yl)methoxy]-5-(pyrrolidin-1-yl)pyridine-2-carboxamide] | 21 nM
5 | CCOC(=O)C(CC)(CC)NC(=O)c1cc(F)c(N2CC(OC)C2)c(OCC2CC2)n1 [Example 7, Ethyl 2-{[6-(cyclopropylmethoxy)-4-fluoro-5-(3-methoxyazetidin-1-yl)pyridine-2-carbonyl]amino}-2-ethylbutanoate] | 2.5 nM
6 | CCC(CC)(NC(=O)c1ccc(N2CC(F)C2)c(OC[C@H]2C[C@@H]2CO)n1)C(=O)N[C@H](CO)CC(C)C (single isomer, unassigned) [Example 28, N-[1-Ethyl-1-[[(1S)-1-(hydroxymethyl)-3-methyl-butyl]carbamoyl]propyl]-5-(3-fluoroazetidin-1-yl)-6-[[(1S,2S)-2-(hydroxymethyl)cyclopropyl]methoxy]pyridine-2-carboxamide or N-[1-ethyl-1-[[(1S)-1-(hydroxymethyl)-3-methyl-butyl]carbamoyl]propyl]-5-(3-fluoroazetidin-1-yl)-6-[[(1R,2R)-2-(hydroxymethyl)cyclopropyl]methoxy]pyridine-2-carboxamide] | 3940 nM
7 | CCOC(=O)C(CC)(CC)NC(=O)c1ccc(N2CC(OC)C2)c(OC[C@@H]2C[C@@H]2COCCF)n1 (mixture of isomers) [Example 6, Ethyl 2-ethyl-2-{[6-({(1R,2S)-2-[(2-fluoroethoxy)methyl]cyclopropyl}methoxy)-5-(3-methoxyazetidin-1-yl)pyridine-2-carbonyl]amino}butanoate and ethyl 2-ethyl-2-{[6-({(1S,2R)-2-[(2-fluoroethoxy)methyl]cyclopropyl}methoxy)-5-(3-methoxyazetidin-1-yl)pyridine-2-carbonyl]amino}butanoate] | 13 nM
8 | CCC(CC)(NC(=O)c1ccc(N2CC(OC)C2)c(OC[C@H]2C[C@@H]2COCc2ccccc2)n1)C(=O)OCCCF [Example 32, 3-Fluoropropyl 2-[[6-[[(1S,2S)-2-(benzyloxymethyl)cyclopropyl]methoxy]-5-(3-methoxyazetidin-1-yl)pyridine-2-carbonyl]amino]-2-ethyl-butanoate] | 246 nM
9 | CCC(CC)(NC(=O)c1ccc(N2CC(OC)C2)c(OC[C@H]2C[C@@H]2CO)n1)C(=O)N[C@H](CO)CC(C)C [Example 26, N-[1-Ethyl-1-[[(1S)-1-(hydroxymethyl)-3-methyl-butyl]carbamoyl]propyl]-6-[[(1S,2S)-2-(hydroxymethyl)cyclopropyl]methoxy]-5-(3-methoxyazetidin-1-yl)pyridine-2-carboxamide] | 130 nM
10 | CCOC(=O)C(CC)(CC)NC(=O)c1ccc(N2CC(OC)C2)c(OC[C@@H]2C[C@H]2COCF)n1 [Example 10, (−)-trans-Ethyl 2-ethyl-2-{[6-({-2-[(fluoromethoxy)methyl]cyclopropyl}methoxy)-5-(3-methoxyazetidin-1-yl)pyridine-2-carbonyl]amino}butanoate] | 8.2 nM
11 | CCC(CC)(NC(=O)c1ccc(N2CC(OC)C2)c(OC[C@H]2C[C@@H]2CO)n1)C(=O)OCCCOS(=O)(=O)c1ccc(C)cc1 [Example 23, 3-(p-Tolylsulfonyloxy)propyl 2-ethyl-2-[[6-[[(1S,2S)-2-(hydroxymethyl)cyclopropyl]methoxy]-5-(3-methoxyazetidin-1-yl)pyridine-2-carbonyl]amino]butanoate] | 21.6 nM
12 | CCC(CC)(NC(=O)c1ccc(N2CC(F)C2)c(OC[C@@H]2C[C@H]2CO)n1)C(=O)N[C@H](CO)CC(C)C (single isomer, unassigned) [Example 27, N-[1-Ethyl-1-[[(1S)-1-(hydroxymethyl)-3-methyl-butyl]carbamoyl]propyl]-5-(3-fluoroazetidin-1-yl)-6-[[(1R,2R)-2-(hydroxymethyl)cyclopropyl]methoxy]pyridine-2-carboxamide or N-[1-ethyl-1-[[(1S)-1-(hydroxymethyl)-3-methyl-butyl]carbamoyl]propyl]-5-(3-fluoroazetidin-1-yl)-6-[[(1S,2S)-2-(hydroxymethyl)cyclopropyl]methoxy]pyridine-2-carboxamide] | 4150 nM
13 | CCC(CC)(NC(=O)c1ccc(N2CC(OC)C2)c(OC[C@H]2C[C@@H]2CO)n1)C(=O)OCCF (stereo in doubt) [Example 13, (+)-trans-2-Fluoroethyl 2-ethyl-2-{[6-{[-2-(hydroxymethyl)cyclopropyl]methoxy}-5-(3-methoxyazetidin-1-yl)pyridine-2-carbonyl]amino}butanoate] | 0.3 nM
14 | CCC(CC)(NC(=O)c1ccc(N2CC(OC)C2)c(OC[C@H]2C[C@@H]2CO)n1)C(=O)OCCCF [Example 15, 3-Fluoropropyl 2-ethyl-2-{[6-{[(1S,2S)-2-(hydroxymethyl)cyclopropyl]methoxy}-5-(3-methoxyazetidin-1-yl)pyridine-2-carbonyl]amino}butanoate] | 0.7 nM
15 | CCOC(=O)C(CC)(CC)NC(=O)c1ccc(N2CC(OC)C2)c(OC[C@@H]2C[C@@H]2COCF)n1 (mixture of isomers) [Example 5, Ethyl 2-ethyl-2-{[6-({(1R,2S)-2-[(fluoromethoxy)methyl]cyclopropyl}methoxy)-5-(3-methoxyazetidin-1-yl)pyridine-2-carbonyl]amino}butanoate and ethyl 2-ethyl-2-{[6-({(1S,2R)-2-[(fluoromethoxy)methyl]cyclopropyl}methoxy)-5-(3-methoxyazetidin-1-yl)pyridine-2-carbonyl]amino}butanoate] | 4.6 nM
16 | [2H]C([2H])(F)C([2H])([2H])C([2H])([2H])OC(=O)C(CC)(CC)NC(=O)c1ccc(N2CC(OC)C2)c(OC[C@H]2C[C@@H]2CO)n1 [Example 19, (1,1,2,2,3,3-Hexadeuterio-3-fluoro-propyl) 2-ethyl-2-[[6-[[(1S,2S)-2-(hydroxymethyl)cyclopropyl]methoxy]-5-(3-methoxyazetidin-1-yl)pyridine-2-carbonyl]amino]butanoate] | 0.8 nM
17 | CCC(CC)(NC(=O)c1ccc(N2CCCC2)c(OCC2(CO)COC2)n1)C(=O)OCF [Example 33, Fluoromethyl 2-ethyl-2-[[6-[[3-(hydroxymethyl)oxetan-3-yl]methoxy]-5-pyrrolidin-1-yl-pyridine-2-carbonyl]amino]butanoate] | 348 nM
18 | CCOC(=O)C(CC)(CC)NC(=O)c1ccc(N2CC(OC)C2)c(OC[C@H]2C[C@@H]2COCF)n1 (stereo in doubt) [Example 9, (+)-trans-Ethyl 2-ethyl-2-{[6-({-2-[(fluoromethoxy)methyl]cyclopropyl}methoxy)-5-(3-methoxyazetidin-1-yl)pyridine-2-carbonyl]amino}butanoate] | 0.2 nM
19 | CCC(CC)(NC(=O)c1ccc(N2CC(F)C2)c(OC[C@@H]2C[C@H]2CO)n1)C(=O)OCCCF (single isomer, unassigned) [Example 29, 3-Fluoropropyl 2-ethyl-2-{[5-(3-fluoroazetidin-1-yl)-6-{[(1R,2R)-2-(hydroxymethyl)cyclopropyl]methoxy}pyridin-2-yl]formamido}butanoate or 3-fluoropropyl 2-ethyl-2-{[5-(3-fluoroazetidin-1-yl)-6-{[(1S,2S)-2-(hydroxymethyl)cyclopropyl]methoxy}pyridin-2-yl]formamido}butanoate] | 10.9 nM
20 | CCC(CC)(NC(=O)c1ccc(N2CC(F)C2)c(OC[C@H]2C[C@@H]2CO)n1)C(=O)OCCCF (single isomer, unassigned) [Example 30, 3-Fluoropropyl 2-ethyl-2-{[5-(3-fluoroazetidin-1-yl)-6-{[(1S,2S)-2-(hydroxymethyl)cyclopropyl]methoxy}pyridin-2-yl]formamido}butanoate or 3-fluoropropyl 2-ethyl-2-{[5-(3-fluoroazetidin-1-yl)-6-{[(1R,2R)-2-(hydroxymethyl)cyclopropyl]methoxy}pyridin-2-yl]formamido}butanoate] | 1.7 nM
